Like-named read-outs stand apart in the source and are kept apart here.
Columns and labels:
Jurkat = experiment: MTS proliferation assay, Jurkat; type: cell-based, human; settings: 72 h incubation, read-out: MTS proliferation assay IC 50 Jurkat
How it was run: (§1)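 Seed cells (1.5*10^3-10^4/well) 24 h ahead; add compound, final 10/3/1/0.3 μM; incubate 72 h, 37 °C, 7.5% CO2; MTS 3 h; read A492.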

Jily = experiment: MTS proliferation assay, Jily; type: cell-based; settings: 72 h incubation, read-out: MTS proliferation assay IC 50 Jily
How it was run: (§2)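 RPMI-1640 + 5% or 10% FCS; seeded 24 h pre-dose; cpd final 10/3/1/0.3 μM, max 5% DMSO in added volume; 72 h, 37° C, 7.5% CO2; MTS 3 h; A492.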

HT1080 = experiment: MTS proliferation assay, HT1080; type: cell-based, human; settings: HT1080, 72 h incubation, read-out: MTS proliferation assay IC 50 HT1080
How it was run: as §1

HeLa = experiment: MTS proliferation assay, HeLa; type: cell-based, human; settings: 72 h incubation, read-out: MTS proliferation assay IC 50 HeLa
How it was run: as §1

MRC5 = experiment: MTS proliferation assay, MRC5; type: cell-based; settings: MRC5, 72 h incubation, read-out: MTS proliferation assay IC 50 MRC5
How it was run: as §2

[1] = tested on: adherent cells or suspension cells; experiment: Hoechst 33342 nuclear staining (fraction of apoptotic nuclei); type: cell-based; set-up: key: 0 relating to no activity; 1 relating to weak activity comprising less than 70% of the cells; score 2 relating to strong activity comprising more than 70% of the cells

Compound	IC50 (Jurkat) [nM]	IC50 (Jily) [nM]	IC50 (HT1080) [nM]	IC50 (HeLa) [nM]	IC50 (MRC5) [nM]	Hoechst 33342 nuclear staining score ([1]; HeLa, conc 0.01 μm)	Hoechst 33342 nuclear staining score ([1]; HeLa, conc 0.1 μm)	Hoechst 33342 nuclear staining score ([1]; HeLa, conc 1 μm)	Hoechst 33342 nuclear staining score ([1]; Jily, conc 0.01 μm)	Hoechst 33342 nuclear staining score ([1]; Jily, conc 0.1 μm)	Hoechst 33342 nuclear staining score ([1]; Jily, conc 1 μm)	Hoechst 33342 nuclear staining score ([1]; Jurkat, conc 0.01 μm)	Hoechst 33342 nuclear staining score ([1]; Jurkat, conc 0.1 μm)	Hoechst 33342 nuclear staining score ([1]; Jurkat, conc 1 μm)	Hoechst 33342 nuclear staining score ([1]; MRC5, conc 0.01 μm)	Hoechst 33342 nuclear staining score ([1]; MRC5, conc 0.1 μm)	Hoechst 33342 nuclear staining score ([1]; MRC5, conc 1 μm)	Hoechst 33342 nuclear staining score ([1]; PBLs, conc 0.01 μm)	Hoechst 33342 nuclear staining score ([1]; PBLs, conc 0.1 μm)	Hoechst 33342 nuclear staining score ([1]; PBLs, conc 1 μm)	other results
Cl.Nc1ccc(OCn2c(-c3nonc3N)nc3ccccc32)cc1 [Example 100]	100 to 1000	> 1000	> 1000	> 1000	> 1000	0	0	0	0	0	1 (1 relating to weak activity comprising less than 70% of the cells)	0	0	1 (1 relating to weak activity comprising less than 70% of the cells)	0	0	0	0	0	0	Hoechst 33342 nuclear staining score ([1]; H460, conc 0.01 μm): 0; Hoechst 33342 nuclear staining score ([1]; H460, conc 0.1 μm): 0; Hoechst 33342 nuclear staining score ([1]; H460, conc 1 μm): 0
Nc1nonc1-c1nc2ccccc2n1COc1ccc(F)cc1 [Example 8, 4-[1-(4-Fluorophenoxymethyl)-1H-benzimidazol-2-yl]-furazan-3-ylamine]	–	100 to 1000	–	–	–	0	0	1 (1 relating to weak activity comprising less than 70% of the cells)	0	0	0	0	0	1 (1 relating to weak activity comprising less than 70% of the cells)	0	0	0	0	0	0	IC50 (Jurkat; Homo sapiens): 100 to 1000 nM; IC50 (HT1080; Homo sapiens, HT-1080): 100 to 1000 nM; IC50 (HeLa; Homo sapiens): 100 to 1000 nM; IC50 (MRC5; Homo sapiens): 100 to 1000 nM; Hoechst 33342 nuclear staining score ([1]; H460, conc 0.01 μm): 0; Hoechst 33342 nuclear staining score ([1]; H460, conc 0.1 μm): 0; Hoechst 33342 nuclear staining score ([1]; H460, conc 1 μm): 0
CC(=O)Nc1ccc(C(=O)Cn2c(-c3nonc3N)nc3ccccc32)cc1 [Example 60]	100 to 1000	100 to 1000	100 to 1000	100 to 1000	100 to 1000	0	0	1 (1 relating to weak activity comprising less than 70% of the cells)	0	0	2 (score 2 relating to strong activity comprising more than 70% of the cells)	0	0	2 (score 2 relating to strong activity comprising more than 70% of the cells)	0	0	2 (score 2 relating to strong activity comprising more than 70% of the cells)	0	0	0	Hoechst 33342 nuclear staining score ([1]; H460, conc 0.01 μm): 0; Hoechst 33342 nuclear staining score ([1]; H460, conc 0.1 μm): 0; Hoechst 33342 nuclear staining score ([1]; H460, conc 1 μm): 0
Cc1ccc(C(=O)Cn2c(-c3nonc3N)nc3ccccc32)cc1 [Example 44]	< 10	10 to 100	10 to 100	10 to 100	10 to 100	0	1 (1 relating to weak activity comprising less than 70% of the cells)	2 (score 2 relating to strong activity comprising more than 70% of the cells)	0	2 (score 2 relating to strong activity comprising more than 70% of the cells)	2 (score 2 relating to strong activity comprising more than 70% of the cells)	0	2 (score 2 relating to strong activity comprising more than 70% of the cells)	2 (score 2 relating to strong activity comprising more than 70% of the cells)	0	0	2 (score 2 relating to strong activity comprising more than 70% of the cells)	0	0	0	Hoechst 33342 nuclear staining score ([1]; H460, conc 0.01 μm): 0; Hoechst 33342 nuclear staining score ([1]; H460, conc 0.1 μm): 2 (score 2 relating to strong activity comprising more than 70% of the cells); Hoechst 33342 nuclear staining score ([1]; H460, conc 1 μm): 2 (score 2 relating to strong activity comprising more than 70% of the cells)
COc1ccc(OCn2c(-c3nonc3N)nc3ccccc32)cc1 [Example 90]	100 to 1000	100 to 1000	100 to 1000	100 to 1000	100 to 1000	0	0	1 (1 relating to weak activity comprising less than 70% of the cells)	0	0	1 (1 relating to weak activity comprising less than 70% of the cells)	0	0	2 (score 2 relating to strong activity comprising more than 70% of the cells)	0	0	1 (1 relating to weak activity comprising less than 70% of the cells)	0	0	0	–
Nc1nonc1-c1nc2ccccc2n1CC(=O)/C=C/c1ccccc1 [Example 12, E-1-[2-(4-Aminofurazan-3-yl)-benzimidazol-1-yl]-4-phenyl-but-3-en-2-one]	–	100 to 1000	–	–	–	0	0	0	0	0	2 (score 2 relating to strong activity comprising more than 70% of the cells)	0	0	2 (score 2 relating to strong activity comprising more than 70% of the cells)	0	0	0	0	0	0	IC50 (Jurkat; Homo sapiens): 100 to 1000 nM; IC50 (HT1080; Homo sapiens, HT-1080): > 1000 nM; IC50 (HeLa; Homo sapiens): > 1000 nM; IC50 (MRC5; Homo sapiens): > 1000 nM; Hoechst 33342 nuclear staining score ([1]; H460, conc 0.01 μm): 0; Hoechst 33342 nuclear staining score ([1]; H460, conc 0.1 μm): 0; Hoechst 33342 nuclear staining score ([1]; H460, conc 1 μm): 0
CC(C)n1c(-c2nonc2N)nc2ccccc21 [A, reference compound]	> 1000	> 1000	> 1000	> 1000	> 1000	–	–	–	–	–	–	–	–	–	–	–	–	–	–	–	Hoechst 33342 nuclear staining score ([1]; H460, conc 3 μm): 0; Hoechst 33342 nuclear staining score ([1]; H460, conc 10 μm): 0; Hoechst 33342 nuclear staining score ([1]; H460, conc 30 μm): 0; Hoechst 33342 nuclear staining score ([1]; HeLa, conc 3 μm): 0; Hoechst 33342 nuclear staining score ([1]; HeLa, conc 10 μm): 0; Hoechst 33342 nuclear staining score ([1]; HeLa, conc 30 μm): 0; Hoechst 33342 nuclear staining score ([1]; Jily, conc 3 μm): 0; Hoechst 33342 nuclear staining score ([1]; Jily, conc 10 μm): 0; Hoechst 33342 nuclear staining score ([1]; Jily, conc 30 μm): 0; Hoechst 33342 nuclear staining score ([1]; Jurkat, conc 3 μm): 0; Hoechst 33342 nuclear staining score ([1]; Jurkat, conc 10 μm): 0; Hoechst 33342 nuclear staining score ([1]; Jurkat, conc 30 μm): 0; Hoechst 33342 nuclear staining score ([1]; MRC5, conc 3 μm): 0; Hoechst 33342 nuclear staining score ([1]; MRC5, conc 10 μm): 0; Hoechst 33342 nuclear staining score ([1]; MRC5, conc 30 μm): 0; Hoechst 33342 nuclear staining score ([1]; PBLs, conc 3 μm): 0; Hoechst 33342 nuclear staining score ([1]; PBLs, conc 10 μm): 0; Hoechst 33342 nuclear staining score ([1]; PBLs, conc 30 μm): 0
